Patent publication US12595248B2, “PRMT5 inhibitors” (Merck Sharp & Dohme LLC, priority 2019, dated 2026)
Like-named read-outs stand apart in the source and are kept apart here.

Columns and labels:
[1] = target: T1, PRMT5-MEP50 enzyme complex (Homo sapiens, UniProt O14744); experiment: PRMT5-MEP50 Enzyme Methylation Assay (Version A); format: biochemical
T1 construct: Full-length (FL)-PRMT5-MEP50 enzyme complex (recombinant proteins from baculovirus-transfected Sf21 cells: FL-PRMT5; MW=73837 kDa and FL-MEP50; MW=38614); made in house; host or cells: baculovirus-transfected Sf21 cells
Protocol: PRMT5-MEP50 Enzyme Methylation Assay (Version A)
PRMT5-MEP50 biochemical assay is a direct measurement of the methylation activity of the enzyme complex on a short peptide substrate derived from the N-terminus of H4 histone. Methylation experiment was performed with recombinant PRMT5-MEP50 protein complex. The assessment of inhibitory effect of small molecules was measured by the effectiveness of the compounds to inhibit this reaction (EC50).
In this assay, the potency (EC50) of each compound was determined from a twenty-point (1:2 serial dilution; top compound concentration of 100000 nM) titration curve using the following outlined procedure. To each well of a white ProxiPlus 384 well-plate, 100 nL of compound (1% DMSO in final assay volume of 10 μL) was dispensed, followed by the addition of 8 μL of 1× assay buffer (50 mM Bicine pH 8.0, 1 mM DTT, 0.004% Tween20, 0.01% BSA) containing 1.25 nM of Full-length (FL)-PRMT5-MEP50 enzyme complex (recombinant proteins from baculovirus-transfected Sf21 cells: FL-PRMT5; MW=[…] and FL-MEP50; MW=38614) and 1 μL of 150 μM S-(5′-Adenosyl)-L-Methionine Chloride (SAM). A plate was sealed and placed in a 37° C. humidified chamber for a 60 minutes pre-incubation with compound. Subsequently, each reaction was initiated by the addition of 1 μL 1× assay buffer containing 750 nM biotinylated H4R3 (MeI) peptide. The final reaction in each well of 10 μL consists of 1.0 nM PRMT5-MEP50, 75 nM biotinylated-peptide, and 15 μM SAM. Methylation reactions were allowed to proceed for 150 minutes in a sealed plate at 37° C. Reactions were immediately quenched by the addition of 1 μL of 5% formic acid. A plate was then frozen and shipped to SAMDI™ Tech Inc. to determine the percent conversion from H4R3 (MeI) to H4R3 (Me2). Dose-response curves were generated by plotting percent effect (% product conversion; Y-axis) vs. Log 10 compound concentrations (X-axis). EC50 values were determined by non-linear regression according to models for either sigmoidal (4 parameters) or biphasic (7 parameters) dose-response curves.

[2] = target: T2, PRMT5 (Homo sapiens, UniProt O14744); experiment: PRMT5 Cell Target Engagement (TE) Assay; format: cell-based; settings: MCF-7 cells, treated for 3 days, symmetric dimethylation of arginine (SDMA) by high content imaging
T2 construct: seeded with 4000 MCF-7 cells in 30 μl media; endogenous in cells; host or cells: MCF-7 cells
How it was run: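 Readout is single-cell nuclear symmetric-dimethylarginine immunofluorescence (Alexa488), normalized to DMSO-treated cells. Compounds were applied to MCF-7 cells for 3 days at 37 °C, top concentration 10000 nM in 1:3 steps over ten points; curves fitted with 4-parameter robust fit.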

[3] = only one EC50 shown: 4 parameters single site sigmoidal model, 60 min pre-incubation with SAM, read-out: Enzyme Methylation Assay Version A (EC50)
[4] = first of two EC50s: 7 parameters biphasic model, read-out: Enzyme Methylation Assay Version A (EC50_1)
[5] = second of two EC50s: 7 parameters biphasic model, read-out: Enzyme Methylation Assay Version A (EC50_2)

T1 sequence (O14744 whole entry): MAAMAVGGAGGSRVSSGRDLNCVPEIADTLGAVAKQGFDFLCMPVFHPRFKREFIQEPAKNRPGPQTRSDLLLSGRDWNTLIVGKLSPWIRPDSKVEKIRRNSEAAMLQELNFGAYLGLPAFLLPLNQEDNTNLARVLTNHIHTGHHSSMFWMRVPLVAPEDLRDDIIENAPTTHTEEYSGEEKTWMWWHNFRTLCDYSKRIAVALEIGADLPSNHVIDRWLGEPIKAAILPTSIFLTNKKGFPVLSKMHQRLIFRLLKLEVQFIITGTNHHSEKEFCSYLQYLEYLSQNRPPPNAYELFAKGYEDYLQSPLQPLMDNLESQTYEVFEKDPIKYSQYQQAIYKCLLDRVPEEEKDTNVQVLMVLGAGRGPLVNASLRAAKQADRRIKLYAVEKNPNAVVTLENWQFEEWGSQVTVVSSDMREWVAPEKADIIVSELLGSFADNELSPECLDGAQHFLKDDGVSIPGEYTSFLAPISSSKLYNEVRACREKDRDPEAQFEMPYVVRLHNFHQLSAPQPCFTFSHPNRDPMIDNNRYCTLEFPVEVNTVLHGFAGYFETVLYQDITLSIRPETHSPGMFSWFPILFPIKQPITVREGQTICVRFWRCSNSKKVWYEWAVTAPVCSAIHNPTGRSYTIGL
T1 sequence (Q9BQA1 whole entry partner): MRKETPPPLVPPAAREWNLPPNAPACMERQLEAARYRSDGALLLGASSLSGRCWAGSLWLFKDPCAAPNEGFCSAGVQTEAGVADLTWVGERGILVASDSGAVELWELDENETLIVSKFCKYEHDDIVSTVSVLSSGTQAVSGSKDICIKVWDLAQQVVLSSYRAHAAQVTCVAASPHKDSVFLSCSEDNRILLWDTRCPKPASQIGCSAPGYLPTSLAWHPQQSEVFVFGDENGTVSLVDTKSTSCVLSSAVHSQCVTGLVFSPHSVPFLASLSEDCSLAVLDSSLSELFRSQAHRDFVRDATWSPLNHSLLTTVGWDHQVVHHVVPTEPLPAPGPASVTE
T2 sequence (O14744 whole entry): as the sequence (O14744 whole entry) above
T2 sequence (Q9BQA1 whole entry partner): as the sequence (Q9BQA1 whole entry partner) above

| SMILES | EC50 [1, 3] [nM] | EC50 [2] [nM] | EC50 [1, 4] [nM] | EC50 [1, 5] [nM] |
| --- | --- | --- | --- | --- |
| CC1CC1c1cnc2nc(C(=O)N3CCC(N4CCc5ccccc5C4)[C@@H](O)C3)cn2c1 (single isomer, unassigned) [Example 131] | 0.5 | 4.6 |  |  |
| Cc1cc(Br)c2nc(C(=O)N3CC[C@H](N4CCc5ccccc5C4)[C@@H](O)C3)cn2c1 [Example 134, (8-bromo-6-methylimidazo[1,2-a]pyridin-2-yl)[(3S,4S)-4-(3,4-dihydroisoquinolin-2(1H)-yl)-3-hydroxypiperidin-1-yl]methanone] |  | 43 | 1.8 | 202 |
| CC1CC1c1cnc2nc(C(=O)N3CCC(N4CCc5ccccc5C4)[C@@H](O)C3)cn2c1 (single isomer, unassigned) [Example 130] | 0.7 | 3.8 |  |  |
| CN1CCC(Nc2cc(C(=O)N3CC[C@H](N4CCc5ccccc5C4)[C@@H](O)C3)c(F)cn2)CC1=O (stereo partly drawn) [Example 112, 4-((4-((3S,4S)-4-(3,4-dihydroisoquinolin-2(1H)-yl)-3-hydroxypiperidine-1-carbonyl)-5-fluoropyridin-2-yl)amino)-1-methylpiperidin-2-one] |  | 50 | 4.5 | 4420 |
| O=C(c1cn2cc(Cl)ccc2n1)N1CC[C@H](N2CCc3ccccc3C2)[C@@H](O)C1 [Example 132, (6-chloroimidazo[1,2-a]pyridin-2-yl)[(3S,4S)-4-(3,4-dihydroisoquinolin-2(1H)-yl)-3-hydroxypiperidin-1-yl]methanone] | 3.2 | 32 |  |  |
| O=C(c1ccc2c(O)c(CC(F)(F)F)cnc2c1)N1CC[C@H](N2CCc3ccccc3C2)[C@@H](O)C1 [Example 126, ((3S,4S)-4-(3,4-dihydroisoquinolin-2(1H)-yl)-3-hydroxypiperidin-1-yl)(4-hydroxy-3-(2,2,2-trifluoroethyl)quinolin-7-yl)methanone] |  | 69 | 1.1 | 1330 |
| COC(=O)N1CCC(Nc2cc(C(=O)N3CC[C@H](N4CCc5ccccc5C4)[C@@H](O)C3)c(F)cn2)CC1 [Example 109, methyl 4-((4-((3S,4S)-4-(3,4-dihydroisoquinolin-2(1H)-yl)-3-hydroxypiperidine-1-carbonyl)-5-fluoropyridin-2-yl)amino)piperidine-1-carboxylate] | 1.2 | 3.5 |  |  |
| CC(=O)N1CC2CC1CC2Nc1cc(C(=O)N2CC[C@H](N3CCc4ccccc4C3)[C@@H](O)C2)c(F)cn1 (single isomer, unassigned) [Example 119] | 3.5 | 15 |  |  |
| CC(=O)N1CC2CC1CC2Nc1cc(C(=O)N2CC[C@H](N3CCc4ccccc4C3)[C@@H](O)C2)c(F)cn1 (single isomer, unassigned) [Example 120] |  | 316 | 20 | 5490 |
| O=C(c1ccc2c(c1)NCCN(C1CCOC1)C2=O)N1CC[C@H](N2CCc3ccccc3C2)[C@@H](O)C1 (stereo partly drawn) [Example 65, 8-((3S,4S)-4-(3,4-dihydroisoquinolin-2(1H)-yl)-3-hydroxypiperidine-1-carbonyl)-4-(tetrahydrofuran-3-yl)-1,2,3,4-tetrahydro-5H-benzo[e][1,4]diazepin-5-one] | 3.5 | 9.6 |  |  |
| CC1(C)CC1(C#N)c1cnc2nc(C(=O)N3CC[C@H](N4CCc5ccccc5C4)[C@@H](O)C3)cn2c1 (single isomer, unassigned) [Example 127] | 0.4 | 12 |  |  |
| O=C1Nc2cc(C(=O)N3CC[C@H](N4CCc5ccccc5C4)[C@@H](O)C3)ccc2OC1C1CC1 (single isomer, unassigned) [Example 80] | 0.7 | 2.5 |  |  |
| O=C(c1cn2cc(Cl)cc(Br)c2n1)N1CC[C@H](N2CCc3ccccc3C2)[C@@H](O)C1 [Example 138, (8-bromo-6-chloroimidazo[1,2-a]pyridin-2-yl)[(3S,4S)-4-(3,4-dihydroisoquinolin-2(1H)-yl)-3-hydroxypiperidin-1-yl]methanone] |  | 17 | 1.1 | 39 |
| CCOc1nc(Br)cn2cc(C(=O)N3CC[C@H](N4CCc5ccccc5C4)[C@@H](O)C3)nc12 [Example 51, (6-bromo-8-ethoxyimidazo[1,2-a]pyrazin-2-yl)((3S,4S)-4-(3,4-dihydroisoquinolin-2(1H)-yl)-3-hydroxypiperidin-1-yl)methanone] |  | 6.3 | 0.4 | 120 |
| CC(=O)N1CC[C@@H](CNc2cc(C(=O)N3CC[C@H](N4CCc5ccccc5C4)[C@@H](O)C3)c(F)cn2)C1 [Example 123, 1-((S)-3-(((4-((3S,4S)-4-(3,4-dihydroisoquinolin-2(1H)-yl)-3-hydroxypiperidine-1-carbonyl)-5-fluoropyridin-2-yl)amino)methyl)pyrrolidin-1-yl)ethan-1-one] | 4.1 | 17 |  |  |
| O=C(c1cn2cc(Br)cc(F)c2n1)N1CC[C@H](N2CCc3ccccc3C2)[C@@H](O)C1 [Example 141, (6-bromo-8-fluoroimidazo[1,2-a]pyridin-2-yl)[(3S,4S)-4-(3,4-dihydroisoquinolin-2(1H)-yl)-3-hydroxypiperidin-1-yl]methanone] | 1.1 | 21 |  |  |
| CC(=O)N1CCC(Nc2cc(C(=O)N3CC[C@H](N4CCc5ccccc5C4)[C@@H](O)C3)c(F)cn2)C1 (single isomer, unassigned) [Example 113] |  | 50 | 3.1 | 9550 |
| CCC(=O)N1CCC(Nc2cc(C(=O)N3CC[C@H](N4CCc5ccccc5C4)[C@@H](O)C3)c(F)cn2)CC1 [Example 111, 1-(4-((4-((3S,4S)-4-(3,4-dihydroisoquinolin-2(1H)-yl)-3-hydroxypiperidine-1-carbonyl)-5-fluoropyridin-2-yl)amino)piperidin-1-yl)propan-1-one] | 1.4 | 6.1 |  |  |
| CC(C)(C)OC(=O)N1C2CCC1CC(Nc1cc(C(=O)N3CC[C@H](N4CCc5ccccc5C4)[C@@H](O)C3)c(F)cn1)C2 (stereo partly drawn) [Example 104, tert-butyl-3-((4-((3S,4S)-4-(3,4-dihydroisoquinolin-2(1H)-yl)-3-hydroxypiperidine-1-carbonyl)-5-fluoropyridin-2-yl)amino)-8-azabicyclo[3.2.1]octane-8-carboxylate] | 1.7 | 42 |  |  |
| CC1CC1c1cnc2nc(C(=O)N3CCC(N4CCc5ccccc5C4)[C@@H](O)C3)cn2c1 (single isomer, unassigned) [Example 129] | 1.4 | 6.4 |  |  |
| CC1(C)CC1(C#N)c1cnc2nc(C(=O)N3CC[C@H](N4CCc5ccccc5C4)[C@@H](O)C3)cn2c1 (single isomer, unassigned) [Example 128] | 0.3 | 1.1 |  |  |
| CC(=O)N1CCC(Nc2cc(C(=O)N3CC[C@H](N4CCc5ccccc5C4)[C@@H](O)C3)c(F)cn2)C1 (single isomer, unassigned) [Example 114] |  | 28 | 3.3 | 3130 |
| O=C(c1ccnc(OC(F)F)c1)N1CC[C@H](N2CCc3ccccc3C2)[C@@H](O)C1 [Example 53, (2-(difluoromethoxy)pyridin-4-yl)((3S,4S)-4-(3,4-dihydroisoquinolin-2(1H)-yl)-3-hydroxypiperidin-1-yl)methanone] |  | > 10000 | ~28 | > 10000 |
| O=C(c1cc2ncc(Br)cn2n1)N1CC[C@H](N2CCc3ccccc3C2)[C@@H](O)C1 [Example 143, (6-bromopyrazolo[1,5-a]pyrimidin-2-yl)[(3S,4S)-4-(3,4-dihydroisoquinolin-2(1H)-yl)-3-hydroxypiperidin-1-yl]methanone] |  | 806 | 2.8 | 1820 |
| CO[C@H](C)c1cc(C(C)C)cn2cc(C(=O)N3CC[C@H](N4CCc5ccccc5C4)[C@@H](O)C3)nc12 [Example 58, [(3S,4S)-4-(3,4-dihydroisoquinolin-2(1H)-yl)-3-hydroxypiperidin-1-yl]{8-[(1R)-1-methoxyethyl]-6-(propan-2-yl)imidazo[1,2-a]pyridin-2-yl}methanone] | 0.3 | 0.6 |  |  |
